Results from US8754242B2, “Herbicides” (Syngenta Crop Protection LLC, priority 2007, dated 2014).

Experiments:
Assay type in all cases: in vivo
[1] = test system: Alopecurus myosuroides (ALOMY); experiment: Test Example 1 pre-emergence herbicidal activity; conditions: Alopecurus myosuroides, 480 h, rate 250 g/ha, evaluated 20 days later, read-out: Pre-emergence activity ALOMY (100=total damage to plant; 0=no damage to plant)
Method: (§1) Monocotyledonous and dicotyledonous test plants were sown in standard soil in pots. After cultivation for one day (pre-emergence) or after 10 days cultivation (post-emergence) under controlled conditions in a glasshouse, the plants were sprayed with an aqueous spray solution derived from the formulation of the technical active ingredient in 0.6 ml acetone and 45 ml formulation solution containing 10.6% Emulsogen EL (Registry number 61791-12-6), 42.2% N-methylpyrrolidone, 42.2% dipropylene glycol monomethyl ether (Registry number 34590-94-8) and 0.2% X-77 (Registry number 11097-66-8). The test plants were then grown in a greenhouse under optimum conditions until, 15 days later for post-emergence and 20 days for pre-emergence, the test was evaluated (100=total damage to plant; 0=no damage to plant).
(§2) Alopecurus myosuroides (ALOMY), Avena fatua (AVEFA), Lolium perenne (LOLPE), Setaria faberi (SETFA), Digitaria sanguinalis (DIGSA), Echinochloa crus-galli (ECHCG)

Avena fatua (AVEFA) [2] = experiment: Test Example 1 pre-emergence herbicidal activity; conditions: Avena fatua, 480 h, rate 250 g/ha, evaluated 20 days later, read-out: Pre-emergence activity AVEFA (100=total damage to plant; 0=no damage to plant)
Method: as §1, §2

[3] = test system: Digitaria sanguinalis (DIGSA); experiment: Test Example 1 pre-emergence herbicidal activity; conditions: Digitaria sanguinalis, 480 h, rate 250 g/ha, evaluated 20 days later, read-out: Pre-emergence activity DIGSA (100=total damage to plant; 0=no damage to plant)
Method: as §1, §2

[4] = test system: Echinochloa crus-galli (ECHCG); experiment: Test Example 1 pre-emergence herbicidal activity; conditions: Echinochloa crus-galli, 480 h, rate 250 g/ha, evaluated 20 days later, read-out: Pre-emergence activity ECHCG (100=total damage to plant; 0=no damage to plant)
Method: as §1, §2

Lolium perenne (LOLPE) [5] = experiment: Test Example 1 pre-emergence herbicidal activity; conditions: Lolium perenne, 480 h, rate 250 g/ha, evaluated 20 days later, read-out: Pre-emergence activity LOLPE (100=total damage to plant; 0=no damage to plant)
Method: as §1, §2

Setaria faberi (SETFA) [6] = experiment: Test Example 1 pre-emergence herbicidal activity; conditions: Setaria faberi, 480 h, rate 250 g/ha, evaluated 20 days later, read-out: Pre-emergence activity SETFA (100=total damage to plant; 0=no damage to plant)
Method: as §1, §2

[7] = test system: Alopecurus myosuroides (ALOMY); experiment: Test Example 1 post-emergence herbicidal activity; conditions: 360 h, rate 125 g/ha, evaluated 15 days later, read-out: Post-emergence activity ALOMY (100=total damage to plant; 0=no damage to plant)
Method: as §1, §2

Avena fatua (AVEFA) [8] = experiment: Test Example 1 post-emergence herbicidal activity; conditions: 360 h, rate 125 g/ha, evaluated 15 days later, read-out: Post-emergence activity AVEFA (100=total damage to plant; 0=no damage to plant)
Method: as §1, §2

[9] = test system: Digitaria sanguinalis (DIGSA); experiment: Test Example 1 post-emergence herbicidal activity; conditions: 360 h, rate 125 g/ha, evaluated 15 days later, read-out: Post-emergence activity DIGSA (100=total damage to plant; 0=no damage to plant)
Method: as §1, §2

[10] = test system: Echinochloa crus-galli (ECHCG); experiment: Test Example 1 post-emergence herbicidal activity; conditions: 360 h, rate 125 g/ha, evaluated 15 days later, read-out: Post-emergence activity ECHCG (100=total damage to plant; 0=no damage to plant)
Method: as §1, §2

Lolium perenne (LOLPE) [11] = experiment: Test Example 1 post-emergence herbicidal activity; conditions: 360 h, rate 125 g/ha, evaluated 15 days later, read-out: Post-emergence activity LOLPE (100=total damage to plant; 0=no damage to plant)
Method: as §1, §2

Setaria faberi (SETFA) [12] = experiment: Test Example 1 post-emergence herbicidal activity; conditions: 360 h, rate 125 g/ha, evaluated 15 days later, read-out: Post-emergence activity SETFA (100=total damage to plant; 0=no damage to plant)
Method: as §1, §2

| SMILES | pest or weed control at 250 g/ha [1] [%] | pest or weed control at 250 g/ha (Avena fatua (AVEFA) [2]) [%] | pest or weed control at 250 g/ha [3] [%] | pest or weed control at 250 g/ha [4] [%] | pest or weed control at 250 g/ha (Lolium perenne (LOLPE) [5]) [%] | pest or weed control at 250 g/ha (Setaria faberi (SETFA) [6]) [%] | pest or weed control at 125 g/ha [7] [%] | pest or weed control at 125 g/ha (Avena fatua (AVEFA) [8]) [%] | pest or weed control at 125 g/ha [9] [%] | pest or weed control at 125 g/ha [10] [%] | pest or weed control at 125 g/ha (Lolium perenne (LOLPE) [11]) [%] | pest or weed control at 125 g/ha (Setaria faberi (SETFA) [12]) [%] |
| --- | --- | --- | --- | --- | --- | --- | --- | --- | --- | --- | --- | --- |
| Cc1cc(C)c(C2=C(O)[C@@H]3[C@@H]4O[C@@H](C[C@H]4c4ccc(C#N)cc4)[C@@H]3C2=O)c(C)c1 [Example T93] | 40 | 30 | 30 | 0 | 20 | 30 | 60 | 80 | 100 | 100 | 60 | 100 |
| Cc1ccc([C@@H]2C[C@@H]3O[C@H]2[C@H]2C(O)=C(c4c(C)cc(C)cc4C)C(=O)[C@H]23)cc1 (racemic) [Example T71] | 30 | 0 | 50 | 50 | 0 | 20 | 50 | 10 | 70 | 60 | 20 | 50 |
| C#CCOC(=O)OC1=C(c2c(C)cc(C)cc2C)C(=O)[C@@H]2[C@H]1[C@@]1(C)CC[C@]2(C)O1 (racemic) [Example P36] | 70 | 80 | 80 | 100 | 100 | 80 | 60 | 70 | 80 | 90 | 60 | 80 |
| CCOC(=O)C1=NOC2C1[C@@H]1O[C@H]2[C@H]2C(O)=C(c3c(CC)cc(C)cc3CC)C(=O)[C@H]21 (mixture of isomers) [Example T16] | 0 | 10 | 0 | 0 | 0 | 10 | 40 | 20 | 0 | 30 | 50 | 0 |
| C=CCC(=O)OC1=C(c2c(CC)cc(C)cc2CC)C(=O)[C@@H]2[C@H]1[C@H]1CC[C@@H]2O1 [Example P23] | 80 | 90 | 100 | 100 | 100 | 100 | 100 | 90 | 70 | 100 | 90 | 80 |
| CC[C@]12CC[C@H](O1)[C@@H]1C(=O)C(c3c(C)cc(C)cc3C)=C(O)[C@@H]12 [Example T52] | 40 | 30 | 90 | 100 | 100 | 90 | 60 | 70 | 80 | 100 | 70 | 80 |
| CSC1=C[C@@H]2O[C@@]1(C)[C@@H]1C(O)=C(c3c(C)cc(C)cc3C)C(=O)[C@H]21 (racemic) [Example T64] | 0 | 0 | 10 | 50 | 10 | 20 | 10 | 0 | 60 | 50 | 0 | 30 |
| CCc1cc(C)cc(CC)c1C1=C(O)[C@@H]2[C@@H]3O[C@@H](C[C@H]3c3ccc(F)cc3F)[C@@H]2C1=O [Example T163] | 70 | 60 | 90 | 80 | 90 | 90 | 80 | 80 | 70 | 100 | 80 | 90 |
| CCc1cc(C)cc(CC)c1C1=C(O)[C@@H]2[C@@H]3O[C@@H](C[C@H]3c3cc(F)ccc3C)[C@@H]2C1=O [Example T147] | 40 | 0 | 40 | 90 | 40 | 60 | 90 | 90 | 100 | 90 | 40 | 70 |
| Cc1cc(C)c(C2=C(O)[C@@H]3[C@@H]4O[C@@H](C[C@H]4c4cccc(C#N)c4)[C@@H]3C2=O)c(C)c1 [Example T89] | 20 | 60 | 30 | 20 | 40 | 30 | 80 | 80 | 90 | 100 | 80 | 90 |
| CC[C@H]1C[C@@H]2O[C@H]1[C@H]1C(O)=C(c3c(C)cc(C)cc3C)C(=O)[C@H]12 [Example T107] | 90 | 90 | 100 | 100 | 100 | 100 | 100 | 90 | 100 | 100 | 90 | 100 |
| Cc1cc(C)c(C2=C(OC(=O)C(C)C)[C@H]3[C@@H](C2=O)[C@@H]2CC[C@H]3O2)c(C)c1 [Example P10] | 100 | 100 | 100 | 100 | 100 | 80 | 100 | 90 | 80 | 100 | 100 | 80 |
